According to patent US11602553B2, “Composition of lactobacillus and berry extract” (UNIVERSITY OF FLORIDA RESEARCH FOUNDATION, INCORPORATED, priority 2018, dated 2023):

Assay: Radical scavenging activity (DPPH method)
Settings: positive control
Procedure: Residual phenolic in growth media ([…]) were recovered as follows: samples of the growth media were taken at different time points along L. johnsonii N6.2 growth kinetics. The supernatant was recovered by centrifugation (4000 g for 30 min at 4° C.) and saved as aliquots at -20° C. until processing. Soluble phenolic compounds were recovered by solid-phase extraction using […] column (ThermoScientific, WI, USA) as described by Correa-Betanz et al. (2015). The total scavenging activity of the culture media was assessed by using the DPPH method described by Dong et al. (2017). The samples ([…] or its polyphenol enriched fractions) were diluted (1⁄2 and 1/10) in methanol. […] The quenching ability of L-ascorbic acid was used as a positive control. The absorbance was measured at 515 nm using a Sinergy HT microplate reader (Biotek, Winooski, Vt., USA). The scavenging activity (SA) was estimated by the following formula: % SA=[(Abscontrol-blank-Abssample-blank)/Abscontrol-blank]×100. Total radical scavenging activity (% SA) is expressed in percent of quenching activity per μg of gallic acid equivalents.

## O=C1O[C@H]([C@@H](O)CO)C(O)=C1O [L-ascorbic acid]
  DPPH scavenging activity (% SA): 20.2±0.85 % SA
